Key:
[1] = test system: S. mansoni adult schistosomes; test: Schistosomiasis screening, adult worm killing (S. mansoni); assay type: cell-based, Schistosoma mansoni; conditions: for Kill % S. m: adult worms, final concentration 143 μM, 45 minutes incubation, washed, cultured 10-14 days, read day 14
Text: (§1) Schistosomiasis screening methods Strains of S. mansoni, S. haematobium, and S. japonicum were maintained by passage through species-specific snail intermediate hosts (Biomphlaria glabrata, Bulinus truncatus, and Oncomelania hupensis, respectively) and Golden Syrian Hamsters as a definitive host. Definitive host animals were sacrificed in accordance with IACUC protocol (UTHSCSA IACUC Protocol #08039) by intraperitoneal injection using Fatal-Plus (Butler Animal Health, Ohio), a sodium pentobarbital solution, with 10% heparin added. The adult parasites were obtained by perfusion as previously described using 0.9% saline containing EDTA.^1 Derivatives were solubilized in DMSO and diluted to working concentration of 50 mM and added directly to each well of a 24-well plate within 2-24 hours after harvesting adult schistosomes from the hamsters at a final concentration of 143 μM. Each analog was tested in triplicate. DMSO, oxamniquine (OXA, the parent drug known to kill only S. mansoni), or Hycanthone (HC, a carcinogen known to kill S. mansoni and S. haematobium) were used as controls as needed. Drugs were incubated with the worms at 37° C., 5% CO2 for 45 minutes, mimicking physiological conditions. The worms were washed with plain media 3 times to remove any residual derivatives. Worms were then incubated in culture media as previously described for a period of 10-14 days. On day 14, the assay gives % worms alive as an efficacy data point. For comparison, Oxaminiquine scores 50% alive in this assay.

[2] = test system: S. haematobium adult schistosomes; test: Schistosomiasis screening, adult worm killing (S. haematobium); assay type: cell-based, Schistosoma haematobium; conditions: adult worms, final concentration 143 μM, 45 minutes incubation, washed, cultured 10-14 days, read day 14
Text: as §1

[3] = test system: S. japonicum adult schistosomes; test: Schistosomiasis screening, adult worm killing (S. japonicum); assay type: cell-based, Schistosoma japonicum; conditions: adult worms, final concentration 143 μM, 45 minutes incubation, washed, cultured 10-14 days, read day 14
Text: as §1

O=[N+]([O-])c1cc(NCC2(Cc3cccc(C(F)(F)F)c3)CCN(Cc3c[nH]c4ccccc34)C2)ccc1CO (stereo not shown) [CIDD-0149830, (4-(((1-((1H-indol-3-yl)methyl)-3-(3-(trifluoromethyl)benzyl)pyrrolidin-3-yl)methyl)amino)-2-nitrophenyl)methanol]
Kill % S. m [1]: 100%
Kill % S. h [2]: 100%
Kill % S. j [3]: 100%

CN(C)CCNC(=O)c1cccc2c(N)c3cc(Cl)ccc3nc12 [CIDD-0150235]
Kill % S. m [1]: 60%

Nc1c2ccccc2nc2c(C(=O)NCCNCCO)cccc12 [CIDD-0150236]
Kill % S. m [1]: 43%

Cc1c2ccccc2nc2c(C(=O)NCCN(C)C)cccc12 [CIDD-0150237]
Kill % S. m [1]: 33%

CN(C)CCCNC(=O)c1cccc2c(N)c3ccccc3nc12 [CIDD-0150238]
Kill % S. m [1]: 6%

CCN(CC)CCNC(=O)c1cccc2c(N)c3ccccc3nc12 [CIDD-0150239]
Kill % S. m [1]: 36%

Oc1cccc2c1ccc1c(F)c3ccccc3cc12 [CIDD-0150240]
Kill % S. m [1]: 20%

Cc1c[nH]c2c1C13CC1CN(S(C)(=O)=O)C3=CC2=O (stereo not shown) [CIDD-0150241]
Kill % S. m [1]: 33%

O[C@@H]1c2ccccc2-c2cc3ccccc3c(F)c2[C@H]1O [CIDD-0150242]
Kill % S. m [1]: 56%

O=C(O)CCCn1c2ccccc2c(=O)c2ccccc21 [CIDD-0150302]
Kill % S. m [1]: 80%
Kill % S. h [2]: 20%
Kill % S. j [3]: 40%

O=S([O-])([O-])=S.O=S([O-])([O-])=S.[Ag+].[Na+].[Na+].[Na+] [CIDD-0150303]
Kill % S. m [1]: 100%
Kill % S. h [2]: 40%
Kill % S. j [3]: 100%

C=CCN(N=O)C(C)OC(C)=O (stereo not shown) [CIDD-0150326]
Kill % S. m [1]: 3.3%

CC(=O)OC(C)N(N=O)C1CC1 (stereo not shown) [CIDD-0150327]
Kill % S. m [1]: 3.3%

O=[N+]([O-])c1ccc2c3c1ccc1cccc(c13)[C@@H](O)[C@H]2O [CIDD-0150328]
Kill % S. m [1]: 16%

O=[N+]([O-])c1ccc2c(O)cc3cccc4ccc1c2c43 [CIDD-0150329]
Kill % S. m [1]: 40%

O=[N+]([O-])c1ccc2cc(O)c3cccc4ccc1c2c43 [CIDD-0150330]
Kill % S. m [1]: 10%

Cc1nc(SC[C@H](N)C(=O)O)c(N)n1C [CIDD-0150331]
Kill % S. m [1]: 10%

CC(=O)Nc1cnc(COC(N)=O)n1C [CIDD-0150332]
Kill % S. m [1]: 17%

CCCS(=O)(=O)OCC [CIDD-0150333]
Kill % S. m [1]: 20%

CCCCCS(=O)(=O)OCC [CIDD-0150334]
Kill % S. m [1]: 47%

Cn1c([N+](=O)[O-])nc2c3ccccc3ccc21 [CIDD-0150605]
Kill % S. m [1]: 13%

Cn1c([N+](=O)[O-])nc2ccc3ccccc3c21 [CIDD-0150606]
Kill % S. m [1]: 100%
Kill % S. h [2]: 85.7%

OCC(O)COc1ccccc1C1CCCC1 (stereo not shown) [CIDD-0150607]
Kill % S. m [1]: 50%

O=Nc1ccc2ccc3cc4ccccc4c4ccc1c2c34 [CIDD-0150608]
Kill % S. m [1]: 93.3%
Kill % S. h [2]: 71.4%

c1cc2ccc3c4ccc5cccc(c(c1)c23)c54 [CIDD-0150609]
Kill % S. m [1]: 16.6%

C[C@@H](O)[C@H]1C(=O)N2C(C(=O)O)=C(S[C@@H]3CN[C@H](C(=O)Nc4cccc(C(=O)O)c4)C3)[C@H](C)[C@H]12 [CIDD-0150610]
Kill % S. m [1]: 100%
Kill % S. h [2]: 100%
Kill % S. j [3]: 100%

CC(C)NCC1CCc2cc(CO)c([N+](=O)[O-])cc2N1 (stereo not shown) [Oxaminiquine, oxamniquine, reference compound]
% worms alive ([1]; day 14, control drug for comparison, species not given): 50%
